The results in this text go back to patent US20220340597A1, “HEXAHYDRO-1H-PYRAZINO[1,2-A]PYRAZINE COMPOUNDS FOR THE TREATMENT OF AUTOIMMUNE DISEASE” (Hoffmann-La Roche Inc., priority 2019, published 2022).

One may read the IC20 as the concentration needed for an effect of 20%. The low end stands for an effect from little substance, the high end for a need for much substance.

Data set [1] concerns the target T1, hERG channel (Homo sapiens, UniProt Q12809).
T1 construct: expressed in transfected cells; host or cells: CHO (Chinese hamster ovary), CHOhERG
Kind of data set: hERG channel inhibition assay (patch-clamp, CHOhERG cells). Format: cell-based. Particulars: for IC50 / IC20: CHOhERG cells, whole-cell patch-clamp; for IC20: human, CHO cells stably expressing hERG (CHOhERG); for hERG IC20/TLR7 IC50 / hERG IC20/TLR8 IC50 / hERG IC20/TLR9 IC50: safety ratio. In outline:
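Whole-cell voltage-clamp recordings of IKhERG in CHO cells stably expressing human hERG, stimulated at 0.1 Hz. Compound applied at rising concentrations, each held 3–10 min to reach steady state; current amplitude and kinetics compared with pre-drug control set as 100%.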
Background: Block of hERG is tested as a sign of cardiac risk.

The target in data set [2] is T2, human TLR9 (Homo sapiens, UniProt Q9NR96).
T2 construct: host or cells: HEK293 (HEK-Blue hTLR9)
T2 sequence (Q9NR96 26-1032): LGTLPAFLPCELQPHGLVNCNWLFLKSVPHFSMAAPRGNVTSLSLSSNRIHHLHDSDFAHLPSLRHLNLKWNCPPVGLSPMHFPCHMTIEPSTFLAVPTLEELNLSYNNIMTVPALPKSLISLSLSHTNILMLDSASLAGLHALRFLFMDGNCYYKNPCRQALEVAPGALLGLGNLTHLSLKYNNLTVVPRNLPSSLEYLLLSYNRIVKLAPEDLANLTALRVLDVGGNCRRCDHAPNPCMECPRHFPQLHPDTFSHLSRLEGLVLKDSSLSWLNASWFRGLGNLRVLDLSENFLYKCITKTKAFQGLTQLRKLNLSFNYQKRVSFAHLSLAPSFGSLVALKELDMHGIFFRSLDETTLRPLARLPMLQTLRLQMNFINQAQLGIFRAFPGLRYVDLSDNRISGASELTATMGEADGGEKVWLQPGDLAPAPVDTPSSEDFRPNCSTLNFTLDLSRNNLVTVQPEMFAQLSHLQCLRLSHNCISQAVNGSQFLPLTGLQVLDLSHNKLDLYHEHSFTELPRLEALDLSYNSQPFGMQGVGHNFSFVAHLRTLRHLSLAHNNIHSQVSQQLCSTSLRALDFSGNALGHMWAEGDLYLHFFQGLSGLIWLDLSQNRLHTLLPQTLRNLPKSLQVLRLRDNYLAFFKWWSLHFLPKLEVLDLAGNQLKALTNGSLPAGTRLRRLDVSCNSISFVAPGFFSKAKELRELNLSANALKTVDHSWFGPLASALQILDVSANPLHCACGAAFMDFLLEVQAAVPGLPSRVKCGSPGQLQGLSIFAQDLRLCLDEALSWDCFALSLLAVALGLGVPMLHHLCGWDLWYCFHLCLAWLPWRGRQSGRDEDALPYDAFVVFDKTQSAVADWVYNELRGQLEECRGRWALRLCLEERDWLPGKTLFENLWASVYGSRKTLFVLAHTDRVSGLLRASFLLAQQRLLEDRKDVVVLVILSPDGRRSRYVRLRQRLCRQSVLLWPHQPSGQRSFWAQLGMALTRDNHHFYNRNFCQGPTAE
Kind of data set: HEK293-Blue-hTLR-9 cells assay. It is filed as cell-based. The settings on record: HEK293-Blue-hTLR9 cells, ODN2006 stimulation, 20 hrs, SEAP reporter; read-out: HEK/hTLR9 IC50.

T1 sequence (Q12809 whole entry): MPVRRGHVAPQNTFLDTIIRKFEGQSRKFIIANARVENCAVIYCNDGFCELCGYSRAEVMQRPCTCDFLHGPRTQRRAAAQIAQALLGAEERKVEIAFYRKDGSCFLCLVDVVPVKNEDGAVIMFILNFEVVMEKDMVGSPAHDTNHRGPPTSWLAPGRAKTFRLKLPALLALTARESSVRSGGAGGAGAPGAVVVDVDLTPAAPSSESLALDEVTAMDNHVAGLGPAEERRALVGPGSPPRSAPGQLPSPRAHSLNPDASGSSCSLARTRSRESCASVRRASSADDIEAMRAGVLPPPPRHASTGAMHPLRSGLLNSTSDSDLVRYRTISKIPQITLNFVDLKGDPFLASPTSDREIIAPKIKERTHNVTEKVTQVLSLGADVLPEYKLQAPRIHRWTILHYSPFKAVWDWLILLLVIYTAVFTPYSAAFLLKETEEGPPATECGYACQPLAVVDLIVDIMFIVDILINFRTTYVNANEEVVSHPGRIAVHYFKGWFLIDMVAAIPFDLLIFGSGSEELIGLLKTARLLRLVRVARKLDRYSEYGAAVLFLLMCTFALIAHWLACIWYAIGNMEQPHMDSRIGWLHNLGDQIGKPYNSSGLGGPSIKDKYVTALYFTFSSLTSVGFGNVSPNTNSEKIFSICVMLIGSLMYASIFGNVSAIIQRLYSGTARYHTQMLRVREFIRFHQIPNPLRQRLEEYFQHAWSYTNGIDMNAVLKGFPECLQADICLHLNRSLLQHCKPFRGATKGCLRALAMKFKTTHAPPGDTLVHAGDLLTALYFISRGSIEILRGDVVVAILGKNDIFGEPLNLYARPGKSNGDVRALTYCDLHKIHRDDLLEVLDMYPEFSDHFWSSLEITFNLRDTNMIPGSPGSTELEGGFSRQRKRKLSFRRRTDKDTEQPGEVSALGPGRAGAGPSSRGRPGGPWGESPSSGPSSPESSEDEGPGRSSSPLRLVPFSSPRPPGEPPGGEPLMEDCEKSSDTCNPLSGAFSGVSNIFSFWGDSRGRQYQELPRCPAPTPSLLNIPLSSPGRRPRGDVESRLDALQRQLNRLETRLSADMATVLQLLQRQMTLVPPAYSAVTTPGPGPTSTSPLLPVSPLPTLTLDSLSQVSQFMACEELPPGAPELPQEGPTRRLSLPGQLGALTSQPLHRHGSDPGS

`[2H]c1ccc2c(N3C[C@@H]4CN(CCc5ccc(N6C[C@H]7NCCO[C@@H]7C6)nc5)CCN4[C@H](C)C3)ccc(C#N)c2n1` [Example 77, 5-[(4R,9aS)-8-[2-[6-[(4aR,7aR)-3,4,4a,5,7,7a-hexahydro-2H-pyrrolo[3,4-b][1,4]oxazin-6-yl]-3-pyridyl]ethyl]-4-methyl-3,4,6,7,9,9a-hexahydro-1H-pyrazino[1,2-a]pyrazin-2-yl]-2-deuterio-quinoline-8-carbonitrile]: in data set [1], the IC50 was more than 20 µM, the IC20 was more than 10 µM, the “hERG IC20/TLR7 IC50” value is given as more than 476 and the “hERG IC20/TLR8 IC50” value is more than 416. Further, in data set [1], the “hERG IC20/TLR9 IC50” value was more than 227. In addition, the IC50 in data set [2] amounted to 44 nM.

As for `[2H]c1ccc2c(N3C[C@@H]4CN(c5ncc(N6C[C@@H]7C[C@H]6CN7)cc5C)CCN4[C@@H](C)C3)ccc(C#N)c2n1` [Example 111, 5-[(4S,9aR)-8-[5-[(1S,4S)-2,5-diazabicyclo[2.2.1]heptan-2-yl]-3-methyl-2-pyridyl]-4-methyl-3,4,6,7,9,9a-hexahydro-1H-pyrazino[1,2-a]pyrazin-2-yl]-2-deuterio-quinoline-8-carbonitrile], in data set [1], the IC50 is more than 20 µM, the IC20 is more than 10 µM, the “hERG IC20/TLR7 IC50” value is more than 1666 and the “hERG IC20/TLR8 IC50” value is given as more than 2000. Further, the “hERG IC20/TLR9 IC50” value in data set [1] is listed as more than 84. Further, the IC50 in data set [2] stood at 119 nM.

As to `[2H]c1ccc2c(N3C[C@@H]4CN(c5ccc(CCN6C[C@H](OC)[C@@H](N)C6)cn5)CCN4[C@H](C)C3)ccc(C#N)c2n1` [Example 109, 5-[(4R,9aR)-8-[5-[2-[(3S,4S)-3-amino-4-methoxy-pyrrolidin-1-yl]ethyl]-2-pyridyl]-4-methyl-3,4,6,7,9,9a-hexahydro-1H-pyrazino[1,2-a]pyrazin-2-yl]-2-deuterio-quinoline-8-carbonitrile], in data set [1], the IC50 was more than 20 µM, the concentration for an effect of 20% (IC20) is more than 10 µM, the “hERG IC20/TLR7 IC50” value is more than 2000 and the “hERG IC20/TLR8 IC50” value is listed as more than 2500. For the same molecule, the “hERG IC20/TLR9 IC50” value in data set [1] is more than 90. Further, in data set [2], the IC50 stood at 111 nM.

As to `Cc1cc(N2CCNCC2)ncc1N1CCN2CCN(c3ccc(C#N)c4ncccc34)CC2C1` (stereo not drawn) [Example 38, 5-[2-(4-methyl-6-piperazin-1-yl-3-pyridyl)-3,4,6,7,9,9a-hexahydro-1H-pyrazino[1,2-a]pyrazin-8-yl]quinoline-8-carbonitrile], in data set [1], the IC50 is more than 20 µM, the IC20 was more than 10 µM, the “hERG IC20/TLR7 IC50” value was more than 5000 and the “hERG IC20/TLR8 IC50” value was more than 1250. Also, in data set [1], the “hERG IC20/TLR9 IC50” value is recorded as more than 108. For the same molecule, in data set [2], the IC50 amounted to 93 nM.

Turning to `Cc1cc(N2CCN3[C@@H](C2)CN(c2ccc(C#N)c4ncccc24)C[C@H]3C)nc(N2CC(C)(N)C2)n1` [Example 55, 5-[(4R,9aR)-8-[2-(3-amino-3-methyl-azetidin-1-yl)-6-methyl-pyrimidin-4-yl]-4-methyl-3,4,6,7,9,9a-hexahydro-1H-pyrazino[1,2-a]pyrazin-2-yl]quinoline-8-carbonitrile], in data set [1], the IC50 is more than 20 µM, the concentration for an effect of 20% (IC20) is more than 10 µM, the “hERG IC20/TLR7 IC50” value is reported as more than 680 and the “hERG IC20/TLR8 IC50” value is more than 249. Besides, in data set [1], the “hERG IC20/TLR9 IC50” value is recorded as more than 209. In addition, the IC50 in data set [2] was 48 nM.

In the case of `C[C@@H]1CN(c2ccc(C#N)c3ncccc23)C[C@@H]2CN(c3cccc4c3CNC4)CCN21` [Example 9, 5-[(4R,9aS)-8-isoindolin-4-yl-4-methyl-3,4,6,7,9,9a-hexahydro-1H-pyrazino[1,2-a]pyrazin-2-yl]quinoline-8-carbonitrile], in data set [1], the IC50 is more than 20 µM, the IC20 was determined as 5.17 µM, the “hERG IC20/TLR7 IC50” value worked out at 1723 and the “hERG IC20/TLR8 IC50” value is 5170. The “hERG IC20/TLR9 IC50” value in data set [1] amounted to 65. Besides, in data set [2], the IC50 was determined as 79 nM.

As to `C[C@@H]1CN(c2ccc(C#N)c3ncccc23)C[C@@H]2CN(CCc3ccc(N4CC5(CN(C)C5)C4)nc3)CCN21` [Example 22, 5-[(4R,9aS)-4-methyl-8-[2-[6-(6-methyl-2,6-diazaspiro[3.3]heptan-2-yl)-3-pyridyl]ethyl]-3,4,6,7,9,9a-hexahydro-1H-pyrazino[1,2-a]pyrazin-2-yl]quinoline-8-carbonitrile], in data set [1], the IC50 was more than 20 µM, the IC20 was more than 10 µM, the “hERG IC20/TLR7 IC50” value is on record as more than 385 and the “hERG IC20/TLR8 IC50” value is listed as more than 172. Further, in data set [1], the “hERG IC20/TLR9 IC50” value is more than 213. In addition, the IC50 in data set [2] worked out at 47 nM.

`CO[C@@H]1CN(c2ccnc(N3CCN4[C@@H](C3)CN(c3ccc(C#N)c5ncccc35)C[C@H]4C)n2)C[C@H]1N` [Example 37, 5-[(4R,9aR)-8-[4-[(3R,4R)-3-amino-4-methoxy-pyrrolidin-1-yl]pyrimidin-2-yl]-4-methyl-3,4,6,7,9,9a-hexahydro-1H-pyrazino[1,2-a]pyrazin-2-yl]quinoline-8-carbonitrile]: in data set [1], the IC50 is more than 10 µM, the 20% effect level (IC20) was put at 4.5 µM, the “hERG IC20/TLR7 IC50” value was determined as 214 and the “hERG IC20/TLR8 IC50” value was 173. Further, in data set [1], the “hERG IC20/TLR9 IC50” value came to 73. Also, the IC50 in data set [2] turned out to be 62 nM.

`C[C@@H]1CN(c2ccc(C#N)n3ncc(F)c23)C[C@@H]2CN(Cc3ccc4c(c3)CNCC4)CCN21` [Example 69, 4-[(4R,9aS)-4-methyl-8-(1,2,3,4-tetrahydroisoquinolin-7-ylmethyl)-3,4,6,7,9,9a-hexahydro-1H-pyrazino[1,2-a]pyrazin-2-yl]-3-fluoro-pyrazolo[1,5-a]pyridine-7-carbonitrile]: in data set [1], the IC50 was more than 20 µM, the IC20 was more than 10 µM, the “hERG IC20/TLR7 IC50” value is on record as more than 152 and the “hERG IC20/TLR8 IC50” value is reported as more than 192. Further, in data set [1], the “hERG IC20/TLR9 IC50” value was more than 70. The IC50 in data set [2] is 142 nM.
